What follows are molecules tested against T1, HaloTag Protein (HTP) on +HTP neurons (Rhodococcus rhodochrous, UniProt P0A3G2, A155T/A167V/A172T/A224E/C128F/C176G/D78G/E160K/E257K/H272N/K175M/K195N/L47V/L88M/N227D/S58T/T264A/Y273L/Y87F) (assay: biotin-HTL capture dose-response on +HTP cultured neurons). Settings: EC 50 (nM), concentration for half-maximal capture on +HTP neurons following 15 minutes of incubation.
T1 construct: SSnlg signal peptide (residues 1-49 of mouse neuroligin-1) (N); ERXL (Kir2.1 trafficking and ER export signals); expressed in transfected cells; host or cells: primary rat hippocampal neurons, electroporated with plasmid
T1 sequence (P0A3G2 other isoform, or with tags, fused parts or gaps with the stated changes): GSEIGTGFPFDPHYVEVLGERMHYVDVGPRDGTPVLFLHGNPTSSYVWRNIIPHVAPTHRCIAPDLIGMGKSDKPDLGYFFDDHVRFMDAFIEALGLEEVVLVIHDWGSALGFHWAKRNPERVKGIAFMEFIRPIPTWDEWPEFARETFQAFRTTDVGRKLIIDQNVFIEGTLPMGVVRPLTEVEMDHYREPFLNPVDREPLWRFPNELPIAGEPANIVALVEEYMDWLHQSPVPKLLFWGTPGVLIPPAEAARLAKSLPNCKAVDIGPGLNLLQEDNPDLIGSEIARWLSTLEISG
Format: cell-based, rat
Protocol: (§1) Cultured neuronal assays: Preparation of hippocampal cultures: Mixed glial and neuronal cultures were prepared from the hippocampus of postnatal day 0 to 1 Sprague-Dawley rat pups. Separate pools of dissociated cells were transfected via electroporation (LONZA, V4SP-3096) with plasmid constructs, and depending on assay directives, either plated individually or mixed with a different pool of electroporated cells after a 10 min recovery period. Cells were cultured on coverslips (Deckglaser) pre-treated with high molecular weight poly-D-lysine (Sigma, P7405; 0.05 mg/mL) in 24-well plates and maintained in NbActiv4 (BrainBits, Nb4-500) at 37 C, 5% CO2. Media was changed by half at DIV3 or 4 and then weekly thereafter; experiments were performed between DIV16 to DIV18.
For any given neuronal assay, coverslips were first washed briefly in a resting BASE solution containing (in mM): 4 KCl, 2 CaCl2), 2 MgCl2, 150 NaCl, 10 HEPES, 10 glucose, pH 7.4, before transfer to a glass-bottom, 24-well imaging plate (Cellvis, P24-1.5H—N). Live cell imaging was performed on an Olympus IX83 inverted fluorescent microscope (10× objective, […].) with LED illumination for GFP (Excitation=485 nm), TR (Ex=560 nm), Cy5/Alexa647 (Ex=640 nm) and Cy7/AlexaFluor750 (Cy7=740 nm) depending on the specific assay directives.
biotin-HTL: Dissociated neurons were electroporated with either the +HTP or ddHTP construct and cultured as described above. A dilution series for both the biotin-PEG12-HTL.1 and biotin-PEG12-HTL.2 compounds was made in BASE solution containing 1% BSA (Sigma A7904), representing 12 final concentrations (in uM) between 10 and 0.001. After a brief rinse in BASE+BSA to acclimate the live neurons to room temperature and avoid temperature effects to the binding kinetics, a single coverslip was incubated in one of the twelve dilutions for 15 min, washed twice in BASE+BSA, then incubated in a 1:500 dilution of Streptavidin-AlexaFluor488 (Invitrogen) for 15 min. The neurons were rinsed four times then transferred to a glass-bottom imaging plate containing BASE+BSA. Each coverslip was imaged in its entirety by combining several 10× images (TR at 10 ms; GFP at 100 ms) together using the Olympus CellSens software stitching algorithm. A dose-response curve was created from the individual coverslips using MatLab.
To enable direct quantification of capture efficiency, commercially available HTL (i.e., HTL.1) were conjugated to biotin via a flexible polyethylene glycol linker of moderate length (PEG12), to mimic the longer (PEG36) linker typically used in an RxDART. Capture kinetics were characterized on cultured neurons expressing HTP on their surface [HTPNLG(432-648), as in, to model the cellular microenvironment of interest. Dose-response curves were performed by incubating neuronal coverslips with a given ligand for 15 min, followed by washing, fluorescent labeling of biotin, and quantification of capture. […] Thus, it was reasoned that improving HTL50 would widen the DW for any Rx cargo.

Which EC50 does the source give for `O=C(CCCC[C@@H]1SC[C@@H]2NC(=O)N[C@@H]21)NCCOCCOCCOCCOCCOCCOCCOCCOCCOCCOCCOCCOCCC(=O)NCc1ccc(C(=O)NCCOCCOCCCCCCCl)cc1` here?
Its EC50 is 150 nM.

For `CCOc1cc(CCCCCl)ccc1OCCCCNC(=O)c1ccc(CNC(=O)CCOCCOCCOCCOCCOCCOCCOCCOCCOCCOCCOCCOCCNC(=O)CCCC[C@@H]2SC[C@@H]3NC(=O)N[C@@H]32)cc1`, which EC50 is on record?
Its EC50 is 70 nM.

With `COc1cc(CCCCI)ccc1OCCCCNC(=O)c1ccc(CNC(=O)CCOCCOCCOCCOCCOCCOCCOCCOCCOCCOCCOCCOCCNC(=O)CCCC[C@@H]2SC[C@@H]3NC(=O)N[C@@H]32)cc1` as the molecule, how does the EC50 read?
Its EC50 is 30 nM.

Which EC50 does the source give for `COc1cc(CCCCBr)ccc1OCCCCNC(=O)c1ccc(CNC(=O)CCOCCOCCOCCOCCOCCOCCOCCOCCOCCOCCOCCOCCNC(=O)CCCC[C@@H]2SC[C@@H]3NC(=O)N[C@@H]32)cc1` here?
The EC50 was 30 nM.

How did the EC50 turn out when `COc1cc(/C=C/CCCl)ccc1CCOCCNC(=O)c1ccc(CNC(=O)CCOCCOCCOCCOCCOCCOCCOCCOCCOCCOCCOCCOCCNC(=O)CCCC[C@@H]2SC[C@@H]3NC(=O)N[C@@H]32)cc1` was run?
The EC50 was 20 nM.

How did the EC50 turn out when `COc1cc(CCCCl)ccc1CCOCCNC(=O)c1ccc(CNC(=O)CCOCCOCCOCCOCCOCCOCCOCCOCCOCCOCCOCCOCCNC(=O)CCCC[C@@H]2SC[C@@H]3NC(=O)N[C@@H]32)cc1` was run?
Its EC50 is 10 nM.

With `Nc1cc(CCCCCl)ccc1OCCCCNC(=O)c1ccc(CNC(=O)CCOCCOCCOCCOCCOCCOCCOCCOCCOCCOCCOCCOCCNC(=O)CCCC[C@H]2SC[C@H]3NC(=O)N[C@H]32)cc1` as the molecule, how does the EC50 read?
Its EC50 is 70 nM.

How did the EC50 turn out when `O=C(CCCC[C@H]1SC[C@H]2NC(=O)N[C@H]21)NCCOCCOCCOCCOCCOCCOCCOCCOCCOCCOCCOCCOCCC(=O)NCc1ccc(C(=O)NCCCCOc2ccc(CCCCCl)cc2)cc1` was run?
Its EC50 is 110 nM.

For `O=C(CCCC[C@@H]1SC[C@@H]2NC(=O)N[C@@H]21)NCCOCCOCCOCCOCCOCCOCCOCCOCCOCCOCCOCCOCCC(=O)NCc1ccc(C(=O)NCCCCOc2ccc(CCCCCl)cc2Cl)cc1`, which EC50 is on record?
The EC50 was 100 nM.

With `COc1cc(CCCCCCl)ccc1CCOCCNC(=O)c1ccc(CNC(=O)CCOCCOCCOCCOCCOCCOCCOCCOCCOCCOCCOCCOCCNC(=O)CCCC[C@@H]2SC[C@@H]3NC(=O)N[C@@H]32)cc1` as the molecule, how does the EC50 read?
Its EC50 is 4000 nM.

`COc1cc(CCCCCl)ccc1CCOCCNC(=O)c1ccc(CNC(=O)CCOCCOCCOCCOCCOCCOCCOCCOCCOCCOCCOCCOCCNC(=O)CCCC[C@@H]2SC[C@@H]3NC(=O)N[C@@H]32)cc1` was tested. Which EC50 did it give?
The EC50 was 30 nM.

`O=C(CCCC[C@@H]1SC[C@@H]2NC(=O)N[C@@H]21)NCCOCCOCCOCCOCCOCCOCCOCCOCCOCCOCCOCCOCCC(=O)NCc1ccc(C(=O)NCCCCOc2ccc(CCCCCl)cc2OC(F)(F)F)cc1` was tested. Which EC50 did it give?
The EC50 was 1500 nM.

`COc1cc(CCCCl)ccc1CC(=O)NCCNC(=O)c1ccc(CNC(=O)CCOCCOCCOCCOCCOCCOCCOCCOCCOCCOCCOCCOCCNC(=O)CCCC[C@@H]2SC[C@@H]3NC(=O)N[C@@H]32)cc1` was tested. Which EC50 did it give?
The EC50 was 20000 nM.

How did the EC50 turn out when `COc1c(/C=C\CCCl)cccc1OCCCCNC(=O)c1ccc(CNC(=O)CCOCCOCCOCCOCCOCCOCCOCCOCCOCCOCCOCCOCCNC(=O)CCCC[C@@H]2SC[C@@H]3NC(=O)N[C@@H]32)cc1` was run?
Its EC50 is 55 nM.

How did the EC50 turn out when `O=C(CCCC[C@@H]1SC[C@@H]2NC(=O)N[C@@H]21)NCCOCCOCCOCCOCCOCCOCCOCCOCCOCCOCCOCCOCCC(=O)NCc1ccc(C(=O)NCCCCOc2ccc(CCCCCl)cc2O)cc1` was run?
Its EC50 is 30 nM.

With `O=C(CCCC[C@H]1SC[C@H]2NC(=O)N[C@H]21)NCCOCCOCCOCCOCCOCCOCCOCCOCCOCCOCCOCCOCCC(=O)NCc1ccc(C(=O)NCCCCOc2ccc(CCCCCl)cc2F)cc1` as the molecule, how does the EC50 read?
The EC50 was 45 nM.

How did the EC50 turn out when `COc1cc(CCCCl)ccc1C(=O)NCCCNC(=O)c1ccc(CNC(=O)CCOCCOCCOCCOCCOCCOCCOCCOCCOCCOCCOCCOCCNC(=O)CCCC[C@@H]2SC[C@@H]3NC(=O)N[C@@H]32)cc1` [drawing 134] was run?
Its EC50 is 280 nM.

`COc1cc(CCCCl)ccc1OCCCCNC(=O)c1ccc(CNC(=O)CCOCCOCCOCCOCCOCCOCCOCCOCCOCCOCCOCCOCCNC(=O)CCCC[C@@H]2SC[C@@H]3NC(=O)N[C@@H]32)cc1` was tested. Which EC50 did it give?
Its EC50 is 50 nM.

For `COc1cc(CCCCl)ccc1C(=O)NCCCNC(=O)c1ccc(CNC(=O)CCOCCOCCOCCOCCOCCOCCOCCOCCOCCOCCOCCOCCNC(=O)CCCC[C@@H]2SC[C@@H]3NC(=O)N[C@@H]32)cc1` [drawing 135], which EC50 is on record?
The EC50 was 200 nM.

Which EC50 does the source give for `O=C(CCCC[C@@H]1SC[C@@H]2NC(=O)N[C@@H]21)NCCOCCOCCOCCOCCOCCOCCOCCOCCOCCOCCOCCOCCC(=O)NCCOCCOCCCCCCCl` here?
The EC50 was 1000 nM.

How did the EC50 turn out when `COc1cc(CCCCl)ccc1C(=O)NCCCNC(=O)c1ccc(CNC(=O)CCOCCOCCOCCOCCOCCOCCOCCOCCOCCOCCOCCOCCNC(=O)CCCC[C@@H]2SC[C@@H]3NC(=O)N[C@@H]32)cc1` [drawing 133] was run?
The EC50 was 200 nM.

Each molecule was assayed on endogenous GABAARs (assay: all-optical assay of GABAAR antagonism in primary neuronal culture). Settings: ddHTP vs +HTP cells, 15 min, 15 uM GABA.
Format: cell-based, rat
Protocol: as §1
Gabazine: Dissociated neurons were electroporated with constructs and cultured for 2 weeks. The assay was performed in the same BASE solution as described above, but with the addition of synaptic blockers CPP (NMDAR antagonist; Tocris) and NBQX (AMPAR antagonist; Abcam, ab120046) to isolate GABAR activity, and a small amount of GABA (GABAR agonist; Sigma) to ensure GABAR activity (=GABAR-BASE). […] Instead, a high dose of regular gabazine was used to completely silence any cells that may not have had realized full antagonism by the end of the assay. Imaging alignment, proof-reading and analysis were performed in a similar fashion to the AMPAR assay using MatLab.
It was next focused on blocking the GABAAR, a ubiquitous transducer of synaptic inhibition. […] The structure-activity literature of gabazine, a selective GABAAR antagonist, was explored. The core gabazine pharmacophore includes of a 3-amino, 6-phenoxy-pyridazine ring, with GABA embedded in the 2-position (2 butyric acid). Based on historical, low-potency predecessors of gabazine, a longer GABA moiety (2 pentanoic acid), and methyl substituents (e.g., 5-CH3) were explored (FIG. 2F). For each variant, the 6-phenoxy moiety was modified to make a gabazinealkyne module, which was click-conjugated to DART.2. Several variants were made, including gabazine.1^DART.2 (2 butyric acid, 5-H), gabazine.5DART.2 (2 pentanoic acid, 5-H), and gabazine.7DART.2 (2 pentanoic acid, 5-CH3). An all-optical assay of endogenous GABAARs in primary neuronal culture was then developed. […] Excitatory synapses were blocked, such that opto-stimulation with ChR2 became the only source of neural excitation.

How did the “DW (t=15 m)” value turn out when `COc1cc(CCCCl)ccc1CCOCCNC(=O)c1ccc(CNC(=O)CCOCCOCCOCCOCCOCCOCCOCCOCCOCCOCCOCCOCCOCCOCCOCCOCCOCCOCCOCCOCCOCCOCCOCCOCCOCCOCCOCCOCCOCCOCCOCCOCCOCCOCCOCCOCCn2cc(COCCOCCOCCOCCOCCOCCOCCCCCCOc3ccc(-c4ccc(=N)n(CCCCC(=O)O)n4)cc3)nn2)cc1` [gabazine.5^DART.2] was run?
The value was 1,500.

Each molecule was assayed on endogenous GABAAR (assay: all-optical assay of GABAAR positive allosteric modulation in primary neuronal culture). Settings: not given.
Format: cell-based, rat
Protocol: as §1
Diazepam/Flumazenil: Dissociated neurons were electroporated with constructs and cultured for 2 weeks. The assay was performed in a modified GABAR-BASE, with an increased KCl concentration to enhance neuronal excitability and a lowered GABA level for a baseline. Again, a DRUG plate and three DoseGroups were used as described above for dosing, but no final WASH. […] Imaging alignment, proof-reading and analysis were performed in a similar fashion to the GABAR assay using MatLab.
Next it was sought to extend DART to allosteric modulators. The allosteric binding site of the GABAAR, known to bind several drugs, with effects ranging from negative to positive allosteric modulation was first analyzed. Diazepam represents the prototypic PAM at this site, and is the most clinically significant of the class. Thus, a diazepam analog was synthesized with a short alkyne attached to the amide of the diazepam core; an attachment site known to tolerate substituents and thought from structural inspection of the GABAAR-bound diazepam pose to allow linker access to free solution. Click chemistry was used to assemble the full-length diazepam.1DART.2 and leveraged an all-optical assay of endogenous GABAARs in primary neuronal culture, with ChR2 and GCaMP6s in the same cell.

With `CCOC(=O)c1ncn2c1CN(C)C(=O)c1cc(F)ccc1-2` [flumazenil, reference compound] as the molecule, how does the GABAAR receptor modulation read?
Its GABAAR receptor modulation is “no receptor modulation”.

Same assay, conditions: traditional (non-DART) version

For `CN1C(=O)CN=C(c2ccccc2)c2cc(Cl)ccc21` [diazepam, reference compound], which “effect on +HTP vs ddHTP cells” value is on record?
The value was “equally affected”.

— US20250213700A1, “COMPOUNDS, COMPOSITIONS, AND METHODS FOR CELL-SPECIFIC PHARMACOLOGY” (Duke University, priority 2022, published 2025)
